Experimental data from paper PMC6934184, “Selective DNA-PKcs inhibition extends the therapeutic index of localized radiotherapy and chemotherapy” (The Journal of Clinical Investigation, 2019).

Biological target: T1, GRK7 (Homo sapiens, UniProt Q8WTQ7)
T1 construct: purchased Thermo Fisher Scientific (Life Technologies) SelectScreen
Experiment: SelectScreen Z'LYTE
Assay type: biochemical
Summary of the method: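 Compound tested in SelectScreen activity assays, Z'LYTE for CSF1R, CDK1/cyclin B and MAP2K6 and Adapta for CAMK1. ATP for CAMK1 was listed as 10, and Km app was used for CSF1R. Results are expressed in percent.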

T1 sequence (Q8WTQ7 whole entry): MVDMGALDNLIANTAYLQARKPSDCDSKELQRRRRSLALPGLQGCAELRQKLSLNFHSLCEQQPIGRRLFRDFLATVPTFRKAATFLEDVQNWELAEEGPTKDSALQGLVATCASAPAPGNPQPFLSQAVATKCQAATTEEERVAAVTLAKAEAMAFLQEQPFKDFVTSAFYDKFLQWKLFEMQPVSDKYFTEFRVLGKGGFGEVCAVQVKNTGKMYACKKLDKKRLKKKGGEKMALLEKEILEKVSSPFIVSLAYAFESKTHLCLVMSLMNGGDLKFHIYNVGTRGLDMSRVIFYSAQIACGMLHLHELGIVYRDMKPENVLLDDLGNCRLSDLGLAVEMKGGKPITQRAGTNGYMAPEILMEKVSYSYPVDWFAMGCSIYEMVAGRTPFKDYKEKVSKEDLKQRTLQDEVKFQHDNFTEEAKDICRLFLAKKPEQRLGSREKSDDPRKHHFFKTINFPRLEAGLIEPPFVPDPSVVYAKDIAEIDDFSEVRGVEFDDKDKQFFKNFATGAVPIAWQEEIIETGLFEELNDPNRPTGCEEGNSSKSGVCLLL

For `CN(C(=O)CN1CCOCC1)c1ccc2sc3c(-c4cccc5c(=O)cc(N6CC7CCC(C6)O7)oc45)cccc3c2c1` [NU5455], the inhibition at 1 µM was -3%.
